Measured values published in the supplement of paper PMC10307832.

Experiments:
Assay in all cases: relative viability (nuclei count vs DMSO), 5 days (fraction); higher = more cells survive
[1] = compound: C1CN(CCC1C(C2=CC3=C(C=C2)OCO3)(C4=CC5=C(C=C4)OCO5)O)C(=O)OC6=CC=C(C=C6)[N+](=O)[O-] [JZL-184] + CC(C)C[C@H](NC(=O)[C@H](Cc1ccccc1)NC(=O)c1cnccn1)B(O)O [Bortezomib] (partner 0.002 µM)
Method in brief: (§1)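 Nuclei were stained with Hoechst during a one-step fixation (final 0.05% Triton X-100, 1% formaldehyde, 1 ug/ml Hoechst) carried out 5 days after dosing, then counted on 4× images. The cells, lung cancer lines in 1536-well plates, had been dosed by pin tool the day after seeding with one drug alone or a fixed anchor-drug dose plus five library-drug doses (not always all listed) in √10 steps. Relative viability is the nuclei count in treated wells divided by that in vehicle wells, and each value is the median of duplicate plates.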

[2] = compound: C1CN(CCC1C(C2=CC3=C(C=C2)OCO3)(C4=CC5=C(C=C4)OCO5)O)C(=O)OC6=CC=C(C=C6)[N+](=O)[O-] [JZL-184] + N=C(N)NC(=N)NCCc1ccccc1 [Phenformin] (partner 250 µM)
Method in brief: as §1

[3] = compound: C1CN(CCC1C(C2=CC3=C(C=C2)OCO3)(C4=CC5=C(C=C4)OCO5)O)C(=O)OC6=CC=C(C=C6)[N+](=O)[O-] [JZL-184] + NC(=O)Nc1cc(-c2cccc(F)c2)sc1C(=O)N[C@H]1CCCNC1 [AZD7762] (partner 0.2 µM)
Method in brief: as §1

[4] = compound: C1CN(CCC1C(C2=CC3=C(C=C2)OCO3)(C4=CC5=C(C=C4)OCO5)O)C(=O)OC6=CC=C(C=C6)[N+](=O)[O-] [JZL-184] + Nc1ncn([C@H]2C[C@H](O)[C@@H](CO)O2)c(=O)n1 [Decitabine] (partner 2 µM)
Method in brief: as §1

[5] = compound: C1CN(CCC1C(C2=CC3=C(C=C2)OCO3)(C4=CC5=C(C=C4)OCO5)O)C(=O)OC6=CC=C(C=C6)[N+](=O)[O-] [JZL-184] + C[C@]1(O)C[C@@H](c2nc(-c3ccc4ccc(-c5ccccc5)nc4c3)c3c(N)nccn32)C1 [Linsitinib] (partner 1 µM)
Method in brief: as §1

Row | Cell Line | relative viability ([1]; first compound 0.04 µM) | relative viability ([1]; first compound 0.4 µM) | relative viability ([1]; first compound 1.265 µM) | relative viability ([1]; first compound 4 µM) | relative viability ([2]; first compound 0.04 µM) | relative viability ([2]; first compound 0.4 µM) | relative viability ([2]; first compound 1.265 µM) | relative viability ([2]; first compound 4 µM) | relative viability ([3]; first compound 0.04 µM) | relative viability ([3]; first compound 0.4 µM) | relative viability ([3]; first compound 1.265 µM) | relative viability ([3]; first compound 4 µM) | relative viability ([4]; first compound 0.04 µM) | relative viability ([4]; first compound 0.4 µM) | relative viability ([4]; first compound 1.265 µM) | relative viability ([4]; first compound 4 µM) | relative viability ([5]; first compound 0.04 µM) | relative viability ([5]; first compound 0.4 µM) | relative viability ([5]; first compound 1.265 µM) | relative viability ([5]; first compound 4 µM)
1 | HCC-827 | 1.11 | 0.911 | 1.07 | 1.02 | 0.424 | 0.376 | 0.424 | 0.379 | 0.147 | 0.182 | 0.19 | 0.206 | 0.297 | 0.191 | 0.306 | 0.312 | 0.988 | 0.976 | 0.949 | 0.89
2 | HOP-62 | 1.09 | 0.862 | 0.809 | 0.856 | 0.787 | 0.639 | 0.705 | 0.683 | 0.617 | 0.53 | 0.754 | 0.417 | 0.249 | 0.197 | 0.233 | 0.214 | 1.09 | 1.13 | 0.992 | 0.784
3 | LC-2-ad | 1.16 | 0.868 | 0.99 | 0.942 | 0.639 | 0.549 | 0.67 | 0.538 | 0.909 | 0.8 | 0.853 | 0.829 | 0.687 | 0.718 | 0.887 | 0.787 | 0.857 | 0.698 | 0.839 | 0.829
4 | LCLC-97TM1 | 0.612 | 0.624 | 0.804 | 0.573 | 0.396 | 0.431 | 0.449 | 0.435 | 0.281 | 0.134 | 0.244 | 0.303 | 0.228 | 0.2 | 0.236 | 0.216 | 0.183 | – | 0.208 | 0.198
5 | LCLC-103H | 0.992 | 1.08 | 0.985 | 1.02 | 0.338 | 0.296 | 0.345 | 0.323 | 0.791 | 0.764 | 0.833 | 0.754 | 0.768 | 0.817 | 0.815 | 0.778 | 1.06 | 1.16 | 1 | 1.05
6 | LOU-NH91 | 0.51 | 0.419 | 0.511 | 0.471 | 0.795 | 0.626 | 0.774 | 0.708 | 0.785 | 0.754 | 0.81 | 0.733 | 0.814 | 0.837 | 0.863 | 0.749 | 1 | 0.924 | 1.02 | 0.968
7 | LU99A | 1.29 | 1.09 | 1.32 | 1.22 | 0.86 | 0.763 | 0.999 | 0.968 | 0.364 | 0.363 | 0.346 | 0.328 | 1 | 0.902 | 1.01 | 0.843 | 0.582 | 0.511 | 0.529 | 0.442
8 | LXF-289 | 1.01 | 0.953 | 1.04 | 0.933 | 0.574 | 0.496 | 0.546 | 0.525 | 1.07 | 1.08 | 1.1 | 1.06 | 0.438 | 0.364 | 0.353 | 0.388 | 1.05 | 0.94 | 0.971 | 0.924
9 | NCI-H23 | 1.24 | 0.765 | 1.21 | 1.07 | 0.879 | 0.793 | 0.817 | 0.855 | 0.203 | – | 0.25 | 0.283 | 0.275 | – | 0.266 | 0.328 | 0.552 | 0.56 | 0.651 | 0.728
10 | NCI-H322M | 1.15 | 1.16 | 1.27 | 1.27 | 0.844 | 0.718 | 0.818 | 0.662 | 0.549 | 0.523 | 0.629 | 0.521 | 0.661 | 0.684 | 0.678 | 0.668 | 0.823 | 0.938 | 0.984 | 0.907
11 | NCI-H441 | 0.379 | 0.373 | 0.227 | 0.591 | 0.818 | 0.802 | 0.914 | 0.923 | 1.44 | 1.23 | 1 | 1.02 | 0.237 | 0.249 | 0.188 | 0.281 | 0.534 | 0.401 | 0.672 | 0.606
12 | NCI-H460 | 1.83 | 1.05 | 1.05 | 1.11 | 0.626 | 0.483 | 0.521 | 0.485 | 0.639 | 0.617 | 0.659 | 0.599 | 0.629 | 0.45 | 0.463 | 0.442 | 1.03 | 0.623 | 0.87 | 0.72
13 | NCI-H596 | 1.21 | 0.948 | 1.17 | 1.08 | 0.895 | 0.663 | 0.895 | 0.769 | 1.16 | 0.911 | 1.11 | 1.29 | 1.1 | 0.96 | 1.01 | 0.984 | 1.21 | 0.978 | 1.05 | 1.05
14 | NCI-H647 | 1.32 | 0.922 | 1.14 | 0.974 | 0.532 | 0.527 | 0.595 | 0.546 | 0.45 | 0.391 | 0.426 | 0.451 | 0.455 | 0.302 | 0.353 | 0.426 | 1.18 | 1.06 | 1.19 | 1.26
15 | NCI-H650 | 0.912 | 0.801 | 1.04 | 0.738 | 0.44 | 0.388 | 0.469 | 0.422 | 0.997 | 1.1 | 1.07 | 0.988 | 0.308 | 0.319 | 0.317 | 0.306 | 0.966 | 0.62 | 0.933 | 0.747
